Test results: patent US9880084B2, “Apparatus for separation of particles” (THE UNIVERSITY OF BRITISH COLUMBIA, priority 2011, dated 2018)

Test system: red blood cells
Experiment: Red blood cell deformability analysis in microfluidic funnel constriction device (threshold pressure / cortical tension)
Assay type: cell-based
Conditions: for Average cortical tension calculated based on equation (1): number in brackets = cells tested
Protocol: The deformability of red blood cells was evaluated using a microfluidic cell separation apparatus. An apparatus comprising a serial funnel configuration (schematically represented in FIG. 4) was employed, with funnel constructions of W0=0.5, 1, 1.5, 2, 3, 4, 5 and 6, 7 μm in series. As red blood cells are toroid or disc-shaped, rather than generally spherical, in the absence of movement restriction, they may progress through the device as a ‘flat’ disk (e.g. sideways), or ‘on edge’ (substantially upright, like a wheel). A channel with a height of about 2-3 μm or less will confine the majority of red blood cells to migrate as a ‘flat disk, while a channel with a height greater than about 3-4 μm will allow the red blood cell to migrate in either configuration, or folded or at an angle. Thus, the apparatus was configured to provide a channel depth of about 3 μm, which confines the cell to move flat into the funnel, not to stand up and fold as it traverses through. The threshold pressure required to push the cell through the funnel is measured as an indicator of the whole cell rigidity or deformability. The minimum applied pressure differential is ˜0.3 Pa. Accordingly, the cortical tension of the cell can be measured based on the information of the cell radius, funnel geometry and measured threshold pressure, as governed by equation (1) above derived from Laplace law PMS (phenazine methosulfate) generates superoxide from within the cell in the same way as the auto-oxidation process inside of the sickled red blood cell (RBC). In response to oxidation, the cell membrane stiffens. This induced stiffening may be employed to simulate the microrheologic properties of dense and/or dehydrated sickle cells (Hebbel, R. P., A. Leung, and N. Mohandas, Oxidation-Induced Changes in Microrheologic Properties of the Red-Blood-Cell Membrane. Blood, 1990. 76(5): p. 1015-1020, Hebbel, R. P., The sickle erythrocyte in double jeopardy: autoxidation and iron decompartmentalization. Seminars in hematology, 1990. 27(1): p. 51-69, and references therein). Here we use microfluidic device to measure the rigidity of PMS treated red blood cells compared to untreated (control) red blood cells, as well as the degree of rigidity change corresponding to different concentration of PMS. RBCs were suspended at 20% hematocrit in balanced salt solution with antibiotics. The RBC suspensions were then modified with 0, 10, 25, and 50 μM PMS for 60 minutes, followed by dilution 200:1 using phosphate buffered saline for use with the apparatus. The PMS treated RBCs and control RBCs were tested to investigate the effect of PMS on rigidity and/or deformability of the RBCs. Measured threshold pressures are an indication of the changes in deformability. […] Threshold pressures were measured of RBC squeezing through 1.1 μm and 1.4 μm constrictions.

## COS(=O)(=O)[O-].C[n+]1c2ccccc2nc2ccccc21 [PMS, phenazine methosulfate]
1.1 μm and 1.4 μm constrictions, 0, 10, 25, 50 μM PMS, FIG. 15
  Threshold pressure of RBC squeezing through constrictions: increases as the concentration increases
PMS 10 to 50 μM
  Deformability of the red cell membrane: decreases as the PMS concentration increases
RBC treated with 10 μmol PMS for 60 minutes
  Average cortical tension calculated based on equation (1): 2.29 ± 0.19 (7) pN/μm
RBC treated with 25 μmol PMS for 60 minutes
  Average cortical tension calculated based on equation (1): 3.38 ± 0.30 (7) pN/μm
RBC treated with 50 μmol PMS for 60 minutes
  Average cortical tension calculated based on equation (1): 4.17 ± 0.19 (8) pN/μm
Fresh from the PMS treatment
  Red cell rigidity versus normal control RBC: obvious increase in rigidity
